Reference: article PMC11722014, “FXR Activation Accelerates Early Phase of Osteoblast Differentiation Through COX-2-PGE2-EP4 Axis in BMP-2-Induced Mouse Mesenchymal Stem Cells” (Molecules, 2024)

Molecular target: T1, Farnesoid X receptor (FXR) (Homo sapiens, UniProt Q96RI1)
T1 construct: gene NR1H4; FXR-LBD-Glutathione S-transferase fusion protein
T1 sequence (Q96RI1 262-486 limits assumed): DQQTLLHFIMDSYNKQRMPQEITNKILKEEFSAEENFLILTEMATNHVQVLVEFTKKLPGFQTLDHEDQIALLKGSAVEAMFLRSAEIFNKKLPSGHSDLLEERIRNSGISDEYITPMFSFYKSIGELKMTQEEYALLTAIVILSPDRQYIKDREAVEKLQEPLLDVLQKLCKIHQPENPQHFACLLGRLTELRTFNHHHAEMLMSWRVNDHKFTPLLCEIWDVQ
Test: LanthaScreen TR-FRET FXR coactivator recruitment assay (partial agonist, […] of GW4064); also luciferase reporter assay
Format: binding

`CC(C)(C)c1ccc(-n2c(C3CC3)nc3c(NC(=O)c4ccc(C(=O)O)cc4)cccc32)cc1` [FLG390] showed an EC50 of 630 ± 260 nM.
